From ChEMBL document CHEMBL5291721, “A preclinical secondary pharmacology resource illuminates target-adverse drug reaction associations of marketed drugs” (Nat Commun, 2023)

Experiments:
[1] = target: Vascular endothelial growth factor receptor 2 (Homo sapiens, UniProt P35968); type: functional
[2] = target: T1, Alpha-2A adrenergic receptor (Homo sapiens, UniProt P08913); type: functional, cell-based
T1 sequence (P08913 whole entry): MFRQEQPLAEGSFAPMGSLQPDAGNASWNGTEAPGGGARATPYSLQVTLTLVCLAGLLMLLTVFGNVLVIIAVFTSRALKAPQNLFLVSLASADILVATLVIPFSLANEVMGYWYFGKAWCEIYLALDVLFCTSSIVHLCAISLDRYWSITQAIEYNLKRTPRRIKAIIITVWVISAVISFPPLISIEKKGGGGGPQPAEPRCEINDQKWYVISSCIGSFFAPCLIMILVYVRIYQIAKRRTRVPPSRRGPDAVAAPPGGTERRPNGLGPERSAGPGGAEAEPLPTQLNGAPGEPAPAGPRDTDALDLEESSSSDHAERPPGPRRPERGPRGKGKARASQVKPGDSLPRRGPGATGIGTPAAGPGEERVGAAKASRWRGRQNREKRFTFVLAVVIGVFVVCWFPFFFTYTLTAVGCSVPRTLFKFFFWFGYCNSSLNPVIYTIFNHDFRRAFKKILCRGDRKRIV

D(1A) dopamine receptor = D(1A) dopamine receptor (Homo sapiens, UniProt P21728); type: functional, cell-based
[3] = target: Delta-type opioid receptor (Homo sapiens, UniProt P41143)
[4] = target: 3',5'-cyclic-AMP phosphodiesterase 4D (Homo sapiens, UniProt Q08499); type: functional
Progesterone receptor = target: T2, Progesterone receptor (Homo sapiens, UniProt P06401); type: functional
T2 sequence (P06401 whole entry): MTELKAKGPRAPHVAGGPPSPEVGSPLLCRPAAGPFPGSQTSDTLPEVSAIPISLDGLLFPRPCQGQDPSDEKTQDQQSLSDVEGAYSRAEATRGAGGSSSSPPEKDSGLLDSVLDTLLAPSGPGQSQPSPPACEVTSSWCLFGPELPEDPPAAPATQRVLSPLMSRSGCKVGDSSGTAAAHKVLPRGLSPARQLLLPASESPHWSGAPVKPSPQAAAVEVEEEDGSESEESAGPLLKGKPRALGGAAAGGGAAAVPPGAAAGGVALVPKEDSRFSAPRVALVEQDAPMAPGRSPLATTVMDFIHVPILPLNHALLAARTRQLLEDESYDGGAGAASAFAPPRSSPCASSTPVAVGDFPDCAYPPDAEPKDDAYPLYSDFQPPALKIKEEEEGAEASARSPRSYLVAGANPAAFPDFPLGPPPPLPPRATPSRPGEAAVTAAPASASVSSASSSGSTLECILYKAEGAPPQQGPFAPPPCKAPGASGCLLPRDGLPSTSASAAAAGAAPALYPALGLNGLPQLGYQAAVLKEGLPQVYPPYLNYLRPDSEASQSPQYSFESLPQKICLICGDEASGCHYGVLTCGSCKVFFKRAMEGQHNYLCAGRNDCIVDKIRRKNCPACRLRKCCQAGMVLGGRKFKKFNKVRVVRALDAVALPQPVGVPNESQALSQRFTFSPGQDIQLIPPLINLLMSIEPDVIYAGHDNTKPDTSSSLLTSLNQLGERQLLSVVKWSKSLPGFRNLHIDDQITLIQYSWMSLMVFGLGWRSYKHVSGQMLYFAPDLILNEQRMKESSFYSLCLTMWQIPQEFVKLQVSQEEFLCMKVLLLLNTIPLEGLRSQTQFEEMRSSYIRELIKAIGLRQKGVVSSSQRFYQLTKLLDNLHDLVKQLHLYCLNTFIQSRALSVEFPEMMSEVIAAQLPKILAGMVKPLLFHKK

[5] = target: T3, Equilibrative nucleoside transporter 1 (Homo sapiens, UniProt Q99808)
T3 sequence (Q99808 whole entry): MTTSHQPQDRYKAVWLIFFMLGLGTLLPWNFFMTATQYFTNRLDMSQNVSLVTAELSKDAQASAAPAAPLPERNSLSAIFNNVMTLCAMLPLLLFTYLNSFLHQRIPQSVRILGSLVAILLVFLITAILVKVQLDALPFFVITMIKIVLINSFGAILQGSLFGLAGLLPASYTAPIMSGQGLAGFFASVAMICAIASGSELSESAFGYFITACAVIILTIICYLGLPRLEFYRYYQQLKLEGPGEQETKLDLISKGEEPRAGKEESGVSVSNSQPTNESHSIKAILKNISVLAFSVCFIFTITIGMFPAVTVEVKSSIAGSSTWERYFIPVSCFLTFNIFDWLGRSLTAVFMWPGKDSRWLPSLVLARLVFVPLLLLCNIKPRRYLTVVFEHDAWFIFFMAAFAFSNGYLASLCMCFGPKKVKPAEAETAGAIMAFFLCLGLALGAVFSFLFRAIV

Histamine H3 receptor = Histamine H3 receptor (Homo sapiens, UniProt Q9Y5N1)
[6] = target: T4, Alpha-1A adrenergic receptor (Homo sapiens, UniProt P35348); type: functional, cell-based
T4 sequence (P35348 whole entry): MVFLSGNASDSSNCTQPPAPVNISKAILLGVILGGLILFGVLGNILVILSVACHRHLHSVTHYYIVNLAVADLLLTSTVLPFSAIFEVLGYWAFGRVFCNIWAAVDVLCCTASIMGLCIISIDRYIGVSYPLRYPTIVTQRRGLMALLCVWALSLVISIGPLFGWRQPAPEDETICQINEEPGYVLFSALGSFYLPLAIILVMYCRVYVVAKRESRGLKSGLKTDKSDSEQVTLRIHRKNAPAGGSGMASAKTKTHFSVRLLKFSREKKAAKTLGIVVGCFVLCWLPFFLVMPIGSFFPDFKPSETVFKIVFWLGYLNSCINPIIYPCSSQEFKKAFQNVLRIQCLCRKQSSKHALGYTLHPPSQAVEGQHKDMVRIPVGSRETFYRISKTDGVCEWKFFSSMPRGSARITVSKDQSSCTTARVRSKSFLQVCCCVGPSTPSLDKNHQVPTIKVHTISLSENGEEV
Note: assay procedure not described here.

Sequence of Vascular endothelial growth factor receptor 2 (P35968 whole entry): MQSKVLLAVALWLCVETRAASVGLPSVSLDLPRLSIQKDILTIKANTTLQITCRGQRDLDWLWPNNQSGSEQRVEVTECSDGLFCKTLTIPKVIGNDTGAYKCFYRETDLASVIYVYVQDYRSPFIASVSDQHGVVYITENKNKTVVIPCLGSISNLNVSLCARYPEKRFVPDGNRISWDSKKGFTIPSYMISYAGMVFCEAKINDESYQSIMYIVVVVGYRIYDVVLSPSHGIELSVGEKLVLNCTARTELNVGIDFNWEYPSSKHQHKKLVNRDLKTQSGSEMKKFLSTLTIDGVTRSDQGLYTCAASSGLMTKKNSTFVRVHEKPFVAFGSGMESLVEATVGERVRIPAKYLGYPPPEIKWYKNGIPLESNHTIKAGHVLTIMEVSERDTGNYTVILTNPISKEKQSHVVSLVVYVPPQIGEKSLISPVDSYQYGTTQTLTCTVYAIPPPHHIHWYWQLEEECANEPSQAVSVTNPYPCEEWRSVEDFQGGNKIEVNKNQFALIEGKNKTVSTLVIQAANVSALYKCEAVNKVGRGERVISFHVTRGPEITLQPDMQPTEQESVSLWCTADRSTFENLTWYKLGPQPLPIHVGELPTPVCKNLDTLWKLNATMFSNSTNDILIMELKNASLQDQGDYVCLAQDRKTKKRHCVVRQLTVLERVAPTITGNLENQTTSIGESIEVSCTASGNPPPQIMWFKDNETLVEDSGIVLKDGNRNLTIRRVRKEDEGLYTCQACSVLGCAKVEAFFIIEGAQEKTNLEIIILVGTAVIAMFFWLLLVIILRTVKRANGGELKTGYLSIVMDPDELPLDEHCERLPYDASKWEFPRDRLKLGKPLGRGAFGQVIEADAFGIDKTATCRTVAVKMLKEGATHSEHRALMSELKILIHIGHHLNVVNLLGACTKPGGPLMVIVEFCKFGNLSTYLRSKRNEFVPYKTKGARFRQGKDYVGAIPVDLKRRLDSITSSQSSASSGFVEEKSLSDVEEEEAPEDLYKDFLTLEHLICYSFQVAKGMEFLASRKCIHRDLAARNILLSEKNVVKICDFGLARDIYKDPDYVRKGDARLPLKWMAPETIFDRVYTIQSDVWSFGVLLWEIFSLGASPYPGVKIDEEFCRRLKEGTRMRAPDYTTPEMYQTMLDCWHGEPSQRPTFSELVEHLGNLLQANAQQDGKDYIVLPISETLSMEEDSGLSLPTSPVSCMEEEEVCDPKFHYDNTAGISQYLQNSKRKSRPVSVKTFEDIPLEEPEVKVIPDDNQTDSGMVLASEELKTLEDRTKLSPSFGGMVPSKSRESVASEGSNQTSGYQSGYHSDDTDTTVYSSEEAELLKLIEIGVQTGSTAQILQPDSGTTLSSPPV
Sequence of 3',5'-cyclic-AMP phosphodiesterase 4D (Q08499 whole entry): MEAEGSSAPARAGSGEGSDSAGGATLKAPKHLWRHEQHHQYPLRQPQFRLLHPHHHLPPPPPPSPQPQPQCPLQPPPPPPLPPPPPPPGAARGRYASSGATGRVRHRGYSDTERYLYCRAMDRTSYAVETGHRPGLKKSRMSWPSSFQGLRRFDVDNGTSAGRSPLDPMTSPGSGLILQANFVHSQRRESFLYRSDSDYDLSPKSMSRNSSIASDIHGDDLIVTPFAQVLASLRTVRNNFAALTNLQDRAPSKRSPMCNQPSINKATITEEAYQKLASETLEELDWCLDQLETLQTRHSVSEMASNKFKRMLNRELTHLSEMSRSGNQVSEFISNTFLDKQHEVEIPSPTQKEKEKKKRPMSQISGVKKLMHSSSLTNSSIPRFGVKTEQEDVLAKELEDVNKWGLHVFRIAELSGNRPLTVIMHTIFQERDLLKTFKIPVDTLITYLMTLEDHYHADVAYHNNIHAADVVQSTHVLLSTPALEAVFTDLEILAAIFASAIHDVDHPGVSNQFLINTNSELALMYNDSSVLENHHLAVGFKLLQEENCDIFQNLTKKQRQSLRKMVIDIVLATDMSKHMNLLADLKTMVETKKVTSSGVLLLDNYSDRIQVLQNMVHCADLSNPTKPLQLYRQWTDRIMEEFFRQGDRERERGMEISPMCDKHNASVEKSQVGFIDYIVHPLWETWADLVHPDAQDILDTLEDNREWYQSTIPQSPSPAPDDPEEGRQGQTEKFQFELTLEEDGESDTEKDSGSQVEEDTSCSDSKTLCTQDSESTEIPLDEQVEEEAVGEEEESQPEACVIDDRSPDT
Sequence of Histamine H3 receptor (Q9Y5N1 whole entry): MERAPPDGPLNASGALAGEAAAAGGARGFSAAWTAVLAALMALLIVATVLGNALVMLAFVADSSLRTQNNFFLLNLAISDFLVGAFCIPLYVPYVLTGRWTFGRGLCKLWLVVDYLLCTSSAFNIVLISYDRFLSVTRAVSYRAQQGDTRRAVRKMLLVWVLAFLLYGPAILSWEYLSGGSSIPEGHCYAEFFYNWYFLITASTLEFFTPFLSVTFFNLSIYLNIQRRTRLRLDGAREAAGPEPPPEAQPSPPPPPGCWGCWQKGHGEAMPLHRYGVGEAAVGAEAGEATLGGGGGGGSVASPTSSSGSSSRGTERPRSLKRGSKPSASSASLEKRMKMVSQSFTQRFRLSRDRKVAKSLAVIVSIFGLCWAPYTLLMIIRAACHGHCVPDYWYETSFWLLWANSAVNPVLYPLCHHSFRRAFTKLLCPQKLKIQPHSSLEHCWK
Sequence of D(1A) dopamine receptor (P21728 whole entry): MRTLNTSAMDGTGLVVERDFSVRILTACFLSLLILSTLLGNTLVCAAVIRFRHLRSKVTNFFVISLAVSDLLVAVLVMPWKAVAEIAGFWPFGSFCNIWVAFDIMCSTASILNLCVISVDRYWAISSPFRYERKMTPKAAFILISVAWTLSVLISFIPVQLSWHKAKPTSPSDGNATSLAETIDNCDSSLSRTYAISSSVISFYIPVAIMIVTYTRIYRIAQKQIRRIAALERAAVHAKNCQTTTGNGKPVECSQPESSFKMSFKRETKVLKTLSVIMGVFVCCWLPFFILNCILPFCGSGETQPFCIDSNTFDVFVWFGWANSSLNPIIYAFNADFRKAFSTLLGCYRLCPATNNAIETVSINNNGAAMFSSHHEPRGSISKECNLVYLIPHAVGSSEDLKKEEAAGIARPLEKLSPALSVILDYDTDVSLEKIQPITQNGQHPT
Sequence of Delta-type opioid receptor (P41143 whole entry): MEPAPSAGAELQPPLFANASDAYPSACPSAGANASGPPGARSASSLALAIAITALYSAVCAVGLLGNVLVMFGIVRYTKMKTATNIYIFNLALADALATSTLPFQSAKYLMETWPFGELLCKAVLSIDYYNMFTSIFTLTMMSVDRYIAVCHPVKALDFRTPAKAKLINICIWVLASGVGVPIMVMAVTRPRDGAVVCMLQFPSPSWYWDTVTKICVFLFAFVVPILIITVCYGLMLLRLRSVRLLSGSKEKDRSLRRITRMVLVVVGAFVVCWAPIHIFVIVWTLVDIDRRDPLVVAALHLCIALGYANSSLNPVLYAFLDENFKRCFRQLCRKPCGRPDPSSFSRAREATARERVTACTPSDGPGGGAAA

| Structure (SMILES) | AC50 [1] | AC50 [2] | AC50 (D(1A) dopamine receptor) | AC50 [3] | AC50 [4] | AC50 (Progesterone receptor) | AC50 [5] | AC50 (Histamine H3 receptor) | AC50 [6] |
| --- | --- | --- | --- | --- | --- | --- | --- | --- | --- |
| CC[C@H](c1ccc(O)cc1)[C@@H](CC)c1ccc(O)cc1 [HEXESTROL] | > 30 µM |  |  |  |  |  |  |  |  |
| O=C(O)COc1ccc(C(=O)c2cccs2)c(Cl)c1Cl | > 30 µM |  |  |  |  |  |  |  |  |
| CC1=C(/C=C/C(C)=C/C=C/C(C)=C/C(=O)O)C(C)(C)CCC1 [TRETINOIN] | > 30 µM |  |  |  |  |  |  |  |  |
| OC[C@H]1O[C@@H](c2ccc(Cl)c(Cc3ccc(O[C@H]4CCOC4)cc3)c2)[C@H](O)[C@@H](O)[C@@H]1O [EMPAGLIFLOZIN] | > 30 µM |  |  |  |  |  |  |  |  |
| C/C=C/C/C=C/CCC(=O)[C@H]1O[C@H]1C(N)=O [CERULENIN] | > 30 µM |  |  |  |  |  |  |  |  |
| CCn1cc(C(=O)O)c(=O)c2cc3c(cc21)OCO3 [OXOLINIC ACID] | > 30 µM |  |  |  |  |  |  |  |  |
| CCOC(=O)C1=C[C@@H](OC(CC)CC)[C@H](NC(C)=O)[C@@H](N)C1 [OSELTAMIVIR] | > 30 µM |  |  |  |  |  |  |  |  |
| Cc1onc(-c2ccccc2)c1C(=O)N[C@@H]1C(=O)N2[C@@H]1SC(C)(C)[C@@H]2C(=O)O [OXACILLIN] | > 30 µM |  |  |  |  |  |  |  |  |
| CC(CN1CC(=O)NC(=O)C1)N1CC(=O)NC(=O)C1 (configuration not stated) [RAZOXANE] | > 30 µM |  |  |  |  |  |  |  |  |
| CCCN(CCC)C(=O)Cc1c(-c2ccc(Cl)cc2)nc2ccc(Cl)cn12 [ALPIDEM] |  | > 30 µM | > 30 µM | > 30 µM | 13 µM | > 30 µM | > 30 µM | > 30 µM |  |
| CC(C)OC(=O)CCC/C=C\C[C@@H]1[C@@H](/C=C/C(F)(F)COc2ccccc2)[C@H](O)C[C@@H]1O [TAFLUPROST] | > 10 µM |  |  |  |  |  |  |  |  |
| Nc1ccc(C(=O)Oc2ccccc2)c(O)c1 [PHENYL AMINOSALICYLATE] | 23.2 µM |  |  |  |  |  |  |  |  |
| C=CCN1CC[C@]23CCCC[C@H]2[C@H]1Cc1ccc(O)cc13 [LEVALLORPHAN] | > 30 µM |  |  |  |  |  |  |  |  |
| COc1cc2nc(N3CCN(C(=O)C4CCCO4)CC3)nc(N)c2cc1OC (configuration not stated) [TERAZOSIN] |  | > 30 µM | > 10 µM | > 30 µM | > 30 µM |  | > 30 µM | > 10 µM |  |
| CCCC(CCC)C(=O)O [VALPROIC ACID] |  | > 10 µM | > 10 µM | > 30 µM | > 30 µM |  | > 30 µM | > 10 µM |  |
| N[C@@H](CO)C(=O)O [SERINE] | > 30 µM |  |  |  |  |  |  |  |  |
| [H]/N=C(\N/C(=N/[H])Nc1ccc(Cl)cc1)NC(C)C [PROGUANIL] | > 30 µM |  |  |  |  |  |  |  |  |

| Structure (SMILES) | AC50 [1] | AC50 [2] | AC50 (D(1A) dopamine receptor) | AC50 [3] | AC50 [4] | AC50 (Progesterone receptor) | AC50 [5] | AC50 (Histamine H3 receptor) | AC50 [6] |
| --- | --- | --- | --- | --- | --- | --- | --- | --- | --- |
| Cc1ccccc1C(=O)Nc1ccc(C(=O)N2CCCC(N(C)C)c3ccccc32)cc1 (configuration not stated) [MOZAVAPTAN] | > 30 µM |  |  |  |  |  |  |  |  |
| COc1c2ccoc2cc2oc(=O)ccc12 [BERGAPTEN] | > 30 µM |  |  |  |  |  |  |  |  |
| N[C@@H](CS)C(=O)O [CYSTEINE] | > 30 µM |  |  |  |  |  |  |  |  |
| CC(CCc1ccccc1)NCC(O)c1ccc(O)c(C(N)=O)c1 (configuration not stated) [LABETALOL] | > 30 µM |  |  |  |  |  |  |  |  |
| CO[C@H]1/C=C/O[C@@]2(C)Oc3c(C)c(O)c4c(O)c(c(/C=N/N5CCN(C)CC5)c(O)c4c3C2=O)NC(=O)/C(C)=C\C=C\[C@H](C)[C@H](O)[C@@H](C)[C@@H](O)[C@@H](C)[C@H](OC(C)=O)[C@@H]1C [RIFAMPIN] |  | > 30 µM | > 30 µM | 17 µM | 13 µM | > 30 µM | 12.4 µM | 25 µM | > 30 µM |
| C[C@]12C=CC(=O)N[C@@H]1CC[C@@H]1[C@@H]2CC[C@]2(C)[C@@H](C(=O)Nc3cc(C(F)(F)F)ccc3C(F)(F)F)CC[C@@H]12 [DUTASTERIDE] |  | > 10 µM | > 10 µM | > 30 µM | > 30 µM | > 10 µM | > 10 µM |  | > 30 µM |
| COc1ccc(CC2c3cc(OC)c(OC)cc3CC[N+]2(C)CCC(=O)OCCCCCOC(=O)CC[N+]2(C)CCc3cc(OC)c(OC)cc3C2Cc2ccc(OC)c(OC)c2)cc1OC (configuration not stated) |  | > 30 µM | > 30 µM | > 30 µM | > 30 µM | > 30 µM | > 30 µM | > 30 µM | 12 µM |
| CC(C(=O)O)c1ccc2c(c1)[nH]c1ccc(Cl)cc12 (configuration not stated) [CARPROFEN] |  | > 10 µM | > 10 µM | > 30 µM | 5.2 µM | > 30 µM | > 30 µM | > 30 µM |  |
| CN1C[C@H](C(=O)N[C@]2(C)O[C@@]3(O)[C@@H]4CCCN4C(=O)[C@H](Cc4ccccc4)N3C2=O)C=C2c3cccc4[nH]cc(c34)C[C@H]21 [ERGOTAMINE] |  | > 10 µM | 0.59 µM | > 30 µM | > 30 µM | > 30 µM | > 30 µM | > 30 µM |  |
| COc1ccccc1OCCNCC(O)COc1cccc2[nH]c3ccccc3c12 (configuration not stated) [CARVEDILOL] |  | > 30 µM | > 10 µM | > 10 µM | > 10 µM | > 30 µM | 31.7 µM | > 30 µM | 0.3 µM |
| CN1C(C(=O)Nc2ccccn2)=C(O)c2ccccc2S1(=O)=O [PIROXICAM] |  | > 10 µM | > 10 µM | > 30 µM | > 30 µM | > 10 µM | > 10 µM |  |  |
| O=C1CN(/N=C/c2ccc(-c3ccc([N+](=O)[O-])cc3)o2)C(O)=N1 [DANTROLENE] |  | > 10 µM | > 10 µM | > 30 µM | > 30 µM | > 10 µM | > 10 µM |  |  |
| CC(N)C12CC3CC(CC(C3)C1)C2 (configuration not stated) [RIMANTADINE] |  | > 10 µM | > 10 µM | > 30 µM | > 30 µM | > 10 µM | > 10 µM |  |  |
| CC(C)(C)NCC(O)c1cc(O)cc(O)c1 (configuration not stated) [TERBUTALINE] |  |  |  |  |  | > 30 µM | > 30 µM | > 30 µM |  |
| CN(C)CC[C@@H](c1ccc(Cl)cc1)c1ccccn1 [DEXCHLORPHENIRAMINE] |  | > 30 µM | > 30 µM | > 30 µM | > 10 µM | > 30 µM | > 30 µM | 6.3 µM | > 30 µM |
| CCN(CC)CCNC(=O)c1c(C)[nH]c(/C=C2\C(=O)Nc3ccc(F)cc32)c1C [SUNITINIB] |  | > 30 µM |  | 1.7 µM | 9.8 µM | 1.7 µM | 5 µM | 0.88 µM |  |
